Experimental data published in article PMC10163008 (Nature Communications, 2023).
Several values for one entry are separate records, joined by “and”; a condition that tells them apart may be missing. Equal values may be shown once.

Experiments:
[1] = tested on: CHLA-20 cells with ALK R1275Q/G1202R (CRISPR, in cis); assay: Cell viability assay (Cell Titer-Glo, 120 h); type: cell-based, human
[2] = tested on: CHLA-20 cells (ALK R1275Q, parental); assay: Cell viability assay (Cell Titer-Glo, 120 h); type: cell-based, human; settings: cell viability after 120 h of treatment
[3] = tested on: patients with ALK-driven relapsed/refractory neuroblastoma; assay: Serial ctDNA profiling (FoundationACT / FoundationOne Liquid CDx) and clinical response in the NANT phase 1 lorlatinib trial; settings: Group 3 (ALK undetectable) patients, all responded
Method: Optional blood sampling was prospectively performed at predefined time points including pretreatment, after courses 2,4,6, and then after every 4th course and at disease progression. Patients <18 years of age were treated across 5 dose levels (cohort A1).
Blood samples for circulating tumor DNA profiling were drawn prior to enrollment, after courses 2, 4, and 6, and then after every 4 courses of treatment for the duration of patient participation in the trial. Forty-six patients were evaluable for this ctDNA study.
16-20 ml of whole blood was drawn from each patient and sent to Foundation Medicine in Streck tubes for ctDNA profiling.
Sequencing data were analyzed for the presence of short variants (single base substitutions and short insertions/deletions), copy number amplifications and homozygous deletions, and detectable gene rearrangements. […]
For most samples, we were able to estimate the ctDNA quantity using the comprehensive tumor fraction (CTF) method, using established computational methods[46],[47]. For samples in which no ALK was detected, we analyzed CTF to determine if any ctDNA was found in the cell-free DNA sequenced. For samples where CTF could not be calculated, MSAF was manually assessed to determine the fraction of ctDNA content[48]. […]

For C[C@H]1Oc2cc(cnc2N)-c2c(nn(C)c2C#N)CN(C)C(=O)c2ccc(F)cc21 [lorlatinib, (10R)-7-amino-12-fluoro-2,10,16-trimethyl-15-oxo-10,15,16,17-tetrahydro-2H-8,4-(metheno)pyrazolo[4,3-h][2,5,11]-benzoxadiazacyclotetradecine-3-carbonitrile], the cell viability ([1]; [lorlatinib] 33, 120 h, exp #1-#9) was 104.185 and 94.5372 and 95.8368 and 98.7284 and 103.246 and 102.304 and 104.304 and 98.5652, the IC50 ([1]; cell viability after 120 h of treatment) was 318 ± 58 nM and the IC50 [2] was 15 ± 4 nM. For the same molecule, the duration of response [3] was 4 to 48 cycles of therapy.
